According to paper PMC9291665, “Discovery and SAR analysis of 5-chloro-4-((substituted phenyl)amino)pyrimidine bearing histone deacetylase inhibitors” (Journal of Enzyme Inhibition and Medicinal Chemistry, 2022):

Experiments:
H3122 = test system: H3122; design: method as in PMID 17185414, PMID 27144831; conditions: cited from earlier work
H2228 = test system: H2228; design: method as in PMID 17185414, PMID 27144831; conditions: cited from earlier work
K562 cells [1] = assay: In vitro antiproliferative assay (CCK-8), K562; assay type: cell-based; conditions: Homo sapiens, at concentration of 1.0 µM, mean of three experiments, read-out: K562 percentage inhibitory rate
Description: (§1) The proliferation of cancer cells was tested by CCK-8 assay. Briefly, cells were seeded in 96-well plate with about 5 × 10^3 cells in each well. The cells were treated with tested compounds after 24 h of incubation. CCK-8 reagent ([…]) was added to each well after 72 h of incubation, and cells were incubated at 37 °C for 4 h. The light absorbance at 450 nm was measured by using an Opsys microplate reader (Dynex Technologies, Chantilly, VA, USA).

[2] = test system: Hela nucleus extract containing a mixture of HDAC isoforms; assay: HDAC enzyme inhibitory screening against Hela nucleus extract; assay type: biochemical; conditions: at concentration of 1.0 µM, mean of three experiments
Description: The synthesised molecules were firstly screened against Hela nucleus extract containing a mixture of HDAC isoforms.
All HDAC enzymes were purchased from BPS Bioscience. In short, 60 µL of recombinant HDAC enzyme solution was mixed with various concentrations of test compound (40 µL), and then incubated at 37 °C for 30 minutes. The reaction was terminated by adding 100 µL of imaging agent containing trypsin and trichostatin A (TSA). After standing for 20 min, the fluorescence intensity was measured at the excitation and emission wavelengths of 360 and 460 nm with a microplate reader. The inhibition rate was calculated from the fluorescence intensity readings of the test wells relative to the control wells, and the IC50 curve and value were determined by GraphPad Prism 6.0 software.

K562 cells [3] = assay: Cell apoptosis analysis by flow cytometry (Annexin V-BV421 / 7-AAD); conditions: 24 h, control 1.14%
Description: Cells were incubated with Annexin V-BV421 (Becton Dickinson, USA) and 7-AAD (Becton Dickinson, USA) double labelling for 30 min in the dark at room temperature and measured by flow cytometry (FACSAriaIII, Becton Dickinson, USA). The data was analysed using Flowjo-V10 software.

MDA-MB-231 = assay: In vitro antiproliferative assay (CCK-8), MDA-MB-231; assay type: cell-based; conditions: Homo sapiens, CCK-8, 72 h
Description: (§2) Compound L20 with good performances in both enzyme and K562 cell inhibitory tests were selected for further antiproliferative assay against various cell lines. K562, U266, U937, C6, Fadu, MDA-MB-231, MDA-MB-468, A549, A2780 and HepG2 cell lines were used in the cell-based anticancer evaluation of L20.
as §1, with “USA). Results are illustrated as percent of cell viability normalised to DMSO-treated control cells.” for “USA).”

MDA-MB-468 = assay: In vitro antiproliferative assay (CCK-8), MDA-MB-468; assay type: cell-based; conditions: Homo sapiens, CCK-8, 72 h
Description: as §2
as §1, with “USA). Results are illustrated as percent of cell viability normalised to DMSO-treated control cells.” for “USA).”

| Structure (SMILES) | HDACs percentage inhibitory rate [2] [%] | inhibition at 1 µM (K562 cells [1]) [%] | further results |
| --- | --- | --- | --- |
| COc1cc(N2CCC(N3CCN(C)CC3)CC2)ccc1Nc1ncc(Cl)c(Nc2ccccc2P(C)(C)=O)n1 [Brigatinib] | – | – | GI50 (H3122): 4 nM; GI50 (H2228): 10 nM |
| O=C(NO)c1ccc(N2CCN(c3ncc(Cl)c(Nc4ccc(Br)cc4)n3)CC2)cc1 [Compound L11, 4–(4–(4-((4-bromophenyl)amino)-5-chloropyrimidin-2-yl)piperazin-1-yl)-N-hydroxybenzamide] | 59.82 ± 4.01 | 60.9 ± 0.21 | – |
| O=C(NO)c1ccc(N2CCN(c3ncc(Cl)c(Nc4ccc(F)cc4)n3)CC2)cc1 [Compound L4, 4–(4-(5-chloro-4-((4-fluorophenyl)amino)pyrimidin-2-yl)piperazin-1-yl)-N-hydroxybenzamide] | 53.89 ± 3.35 | 58.2 ± 1.05 | – |
| CCOc1ccc(Nc2nc(N3CCN(c4ccc(C(=O)NO)cc4)CC3)ncc2Cl)cc1 [Compound L8, 4–(4-(5-chloro-4-((4-ethoxyphenyl)amino)pyrimidin-2-yl)piperazin-1-yl)-N-hydroxybenzamide] | 49.32 ± 0.89 | 37.1 ± 1.54 | – |
| O=C(NO)c1ccc(N2CCN(c3ncc(Cl)c(Nc4ccccc4)n3)CC2)cc1 [Compound L1, 4–(4-(5-chloro-4-(phenylamino)pyrimidin-2-yl)piperazin-1-yl)-N-hydroxybenzamide] | 50.54 ± 2.27 | 30.7 ± 0.32 | – |
| Cc1ccc(Nc2nc(N3CCN(c4ccc(C(=O)NO)cc4)CC3)ncc2Cl)cc1 [Compound L2, 4–(4-(5-chloro-4-(p-tolylamino)pyrimidin-2-yl)piperazin-1-yl)-N-hydroxybenzamide] | 47.98 ± 1.54 | 43.9 ± 0.81 | – |
| O=C(CCCCCCC(=O)Nc1ccccc1)NO [SAHA, Vorinostat, reference compound] | – | – | apoptotic rate of K562 cells (K562 cells [3]; 1 µM): 1.39%; apoptotic rate of K562 cells (K562 cells [3]; 2 µM): 3.36%; apoptotic rate of K562 cells (K562 cells [3]; 4 µM): 19.75%; IC50 (MDA-MB-231): 3590 ± 240 nM; IC50 (MDA-MB-468): 4850 ± 230 nM |
| O=C(NO)c1ccc(N2CCN(c3ncc(Cl)c(Nc4cccc(Br)c4)n3)CC2)cc1 [Compound L10, 4–(4–(4-((3-bromophenyl)amino)-5-chloropyrimidin-2-yl)piperazin-1-yl)-N-hydroxybenzamide] | 51.50 ± 2.03 | 31.6 ± 1.12 | – |
| COc1ccc(Nc2nc(N3CCN(c4ccc(C(=O)NO)cc4)CC3)ncc2Cl)cc1OC [Compound L7, 4–(4-(5-chloro-4-((3,4-dimethoxyphenyl)amino)pyrimidin-2-yl)piperazin-1-yl)-N-hydroxybenzamide] | 58.37 ± 1.55 | 63.9 ± 1.12 | – |
| N#Cc1ccc(Nc2nc(N3CCN(c4ccc(C(=O)NO)cc4)CC3)ncc2Cl)cc1 [Compound L5, 4–(4-(5-chloro-4-((4-cyanophenyl)amino)pyrimidin-2-yl)piperazin-1-yl)-N-hydroxybenzamide] | 48.33 ± 0.64 | 31.51 ± 0.09 | – |
| COc1cccc(Nc2nc(N3CCN(c4ccc(C(=O)NO)cc4)CC3)ncc2Cl)c1 [Compound L9, 4–(4-(5-chloro-4-((3-methoxyphenyl)amino)pyrimidin-2-yl)piperazin-1-yl)-N-hydroxybenzamide] | 55.28 ± 0.15 | 50.8 ± 2.92 | – |
| Cc1cc(Nc2ncc(Cl)c(Nc3ccccc3S(=O)(=O)C(C)C)n2)c(OC(C)C)cc1C1CCNCC1 [Ceritinib] | – | – | GI50 (H3122): 62 nM; GI50 (H2228): 121 nM |
| COc1cc(Nc2nc(N3CCN(c4ccc(C(=O)NO)cc4)CC3)ncc2Cl)cc(OC)c1 [Compound L6, 4–(4-(5-chloro-4-((3,5-dimethoxyphenyl)amino)pyrimidin-2-yl)piperazin-1-yl)-N-hydroxybenzamide] | 59.74 ± 0.03 | 56.6 ± 0.11 | – |
| CCc1ccc(Nc2nc(N3CCN(c4ccc(C(=O)NO)cc4)CC3)ncc2Cl)cc1 [Compound L3, 4–(4-(5-chloro-4-((4-ethylphenyl)amino)pyrimidin-2-yl)piperazin-1-yl)-N-hydroxybenzamide] | 50.54 ± 0.21 | 19.5 ± 0.06 | – |

The next lines start with results.

| HDACs percentage inhibitory rate [2] [%] | Structure (SMILES) | inhibition at 1 µM (K562 cells [1]) [%] | further results |
| --- | --- | --- | --- |
| 46.50 ± 4.74 | O=C(NO)c1ccc(N2CCN(c3ncc(Cl)c(Nc4cccc(I)c4)n3)CC2)cc1 [Compound L16, 4-(4-(5-chloro-4-((3-iodophenyl)amino)pyrimidin-2-yl)piperazin-1-yl)-N-hydroxybenzamide] | 37.1 ± 1.54 | – |
| 52.92 ± 2.00 | O=C(NO)c1ccc(N2CCN(c3ncc(Cl)c(Nc4ccc(F)c(Cl)c4)n3)CC2)cc1 [Compound L18, 4-(4-(5-chloro-4-((3-chloro-4-fluorophenyl)amino)pyrimidin-2-yl)piperazin-1-yl)-N-hydroxybenzamide] | 31.3 ± 0.92 | – |
| 52.44 ± 1.44 | O=C(NO)c1ccc(N2CCN(c3ncc(Cl)c(Nc4ccc(Cl)cc4)n3)CC2)cc1 [Compound L13, 4–(4-(5-chloro-4-((4-chlorophenyl)amino)pyrimidin-2-yl)piperazin-1-yl)-N-hydroxybenzamide] | 54.1 ± 2.34 | – |
| 44.91 ± 4.97 | CC(C)S(=O)(=O)c1ccccc1Nc1nc(N2CCN(c3ccc(C(=O)NO)cc3)CC2)ncc1Cl [Compound L19, 4-(4-(5-chloro-4-((2-(isopropylsulfonyl)phenyl)amino)pyrimidin-2-yl)piperazin-1-yl)-N-hydroxybenzamide] | 21.3 ± 0.65 | – |
| 54.51 ± 3.05 | O=C(NO)c1ccc(N2CCN(c3ncc(Cl)c(Nc4ccc(I)cc4)n3)CC2)cc1 [Compound L17, 4-(4-(5-chloro-4-((4-iodophenyl)amino)pyrimidin-2-yl)piperazin-1-yl)-N-hydroxybenzamide] | 56.4 ± 2.16 | – |
| 58.95 ± 0.74 | COc1ccc(Nc2nc(N3CCN(c4ncc(C(=O)NO)cn4)CC3)ncc2Cl)cc1OC [Compound L21, 2–(4-(5-chloro-4-((3,4-dimethoxyphenyl)amino)pyrimidin-2-yl)piperazin-1-yl)-N-hydroxypyrimidine-5-carboxamide] | 62.6 ± 2.45 | – |
| 32.74 ± 0.38 | O=C(NO)c1ccc(N2CCN(c3ncc(Cl)c(Nc4cccc(Cl)c4)n3)CC2)cc1 [Compound L12, 4–(4-(5-chloro-4-((3-chlorophenyl)amino)pyrimidin-2-yl)piperazin-1-yl)-N-hydroxybenzamide] | 50.6 ± 1.86 | – |
| 40.93 ± 0.50 | O=C(NO)c1cnc(N2CCN(c3ncc(Cl)c(Nc4ccc(-c5ccccc5)cc4)n3)CC2)nc1 [Compound L22, 2–(4-(4-([1,1′-biphenyl]-4-ylamino)-5-chloropyrimidin-2-yl)piperazin-1-yl)-N-hydroxypyrimidine-5-carboxamide] | 37.1 ± 2.11 | – |
| 58.15 ± 2.02 | COc1cc(Nc2nc(N3CCN(c4ccc(C(=O)NO)cc4)CC3)ncc2Cl)cc(OC)c1OC [Compound L15, 4–(4-(5-chloro-4-((3,4,5-trimethoxyphenyl)amino)pyrimidin-2-yl)piperazin-1-yl)-N-hydroxybenzamide] | 58.6 ± 2.01 | – |
| 46.80 ± 1.07 | O=C(NO)c1ccc(N2CCN(c3ncc(Cl)c(Nc4ccc(-c5ccccc5)cc4)n3)CC2)cc1 [Compound L14, 4–(4–(4-([1,1′-biphenyl]-4-ylamino)-5-chloropyrimidin-2-yl)piperazin-1-yl)-N-hydroxybenzamide] | 35.2 ± 1.21 | – |
